Each molecule was assayed on IL-6 (assay: LPS-induced IL-6 expression in mouse bone marrow-derived dendritic cells, ELISA). Details: DCs co-treated with LPS and BrDs at 20 μM.
Format: cell-based
From the text: For mouse bone marrow-derived DCs (BMDCs), five to six-week-old female C57BL/6JNarl mice were purchased from the National Laboratory Animal Center, Taiwan and kept under SPF conditions. BMDCs were generated from bone marrow cells of C57BL/6 mice as described previously (Yin S Y, Wang W H, Wang B X, Aravindaram K, Hwang P I, Wu H M, Yang N S. BMC genomics 2010, 11:612). In brief, bone marrow was isolated from femurs and tibiae which were then flushed with RPMI-1640 medium using a syringe with a 0.45-mm needle on Day 0. Red blood cells in suspension were lysed for […] with ACK lysing buffer (150 mM NH4Cl, 1.0 mM KHCO3, 0.1 mM EDTA). Bone marrow cells were suspended at a density of 1×10^7 cells/30 ml in RPMI-1640 containing 10% FBS, 2 mM L-glutamine, 1% of nonessential amino acids, 100 U/mL penicillin and 100 μg/mL streptomycin supplemented with 20 ng/mL of mGM-CSF in 15-cm dishes at 37° C. with 5% CO2. On day 2, two-thirds of the medium was removed and 30 mL fresh medium with mGM-CSF was added to the cells. On day 5, culture plates were gently swirled and the floating and loosely adherent cells were discarded. Aliquots of 75% culture media were replenished with 20 ng/mL mGM-CSF and 20 ng/mL mIL-4. On day 7, mouse BMDCs (95% pure CD11b and MHC II) were harvested and incubated in RPMI 1640 medium containing 1 mM sodium pyruvate, 0.1 mM nonessential amino acids, 100 U/ml penicillin, 100 μg/ml streptomycin, and supplemented with 10% fetal bovine serum (Invitrogen, Carlsbad, Calif.) for 24 h at 37° C. with or without test chemicals in the presence or absence of LPS (100 ng/ml).
BMDCs were treated with or without test chemicals in the presence or absence of LPS (100 ng/ml) for 24 h at 37° C. Aliquots of supernatants from DC cultures were assayed for IL-6 and TNF-α using commercial ELISA kits (R&D Systems, Minneapolis, Minn.) following the manufacturer's recommendations.
Several studies have reported that the secretion of specific cytokines, including IL-1β, TNF-α and IL-6 by keratinocytes and various immune cells is involved in cutaneous inflammation (Nestle F O, Di Meglio P, Qin J Z, Nickoloff B J. Nature reviews Immunology 2009, 9:679-691; De Vry C G, Valdez M, Lazarov M, Muhr E, Buelow R, Fong T, Iyer S. J Invest Dermatol 2005, 125:473-481; Cumberbatch M, Dearman R J, Kimber I. Immunology 1996, 87:513-518). In order to investigate the anti-inflammatory effect of BrD1 on cytokine expression, mouse bone marrow-derived dendritic cells were used to evaluate the inhibitory effect of BrD1 on LPS-induced expressions of TNF-α and IL-6. In our time-course study for expression of TNF-α and IL-6, after LPS stimulation, a high expression of TNF-α and IL-6 was maintained at 24 h (FIG. 6A). We therefore chose 24 h as the time point at which to assess the expression of TNF-α and IL-6.

SMILES	inhibition of LPS-induced IL-6 expression (structure-activity relationship)
CCCCCCCCCC(=O)O[C@H]1C[C@H](OC(C)=O)[C@@]2(C)[C@H]([C@H]1C)[C@H](OC(C)=O)[C@]13O[C@@]1(C)C(=O)O[C@H]3/C=C(/C)C[C@H](OC(=O)CCC)[C@@H]2OC(C)=O [BrD1-10C]	inhibitory activity gradually decreased
CCCCC(=O)O[C@H]1C[C@H](OC(C)=O)[C@@]2(C)[C@H]([C@H]1C)[C@H](OC(C)=O)[C@]13O[C@@]1(C)C(=O)O[C@H]3/C=C(/C)C[C@H](OC(=O)CCC)[C@@H]2OC(C)=O [BrD1-5C]	inhibitory activity gradually decreased
CCCCCCC(=O)O[C@H]1C[C@H](OC(C)=O)[C@@]2(C)[C@H]([C@H]1C)[C@H](OC(C)=O)[C@]13O[C@@]1(C)C(=O)O[C@H]3/C=C(/C)C[C@H](OC(=O)CCC)[C@@H]2OC(C)=O [BrD1-7C]	inhibitory activity gradually decreased
CCCCCC(=O)O[C@H]1C[C@H](OC(C)=O)[C@@]2(C)[C@H]([C@H]1C)[C@H](OC(C)=O)[C@]13O[C@@]1(C)C(=O)O[C@H]3/C=C(/C)C[C@H](OC(=O)CCC)[C@@H]2OC(C)=O [BrD1-6C]	inhibitory activity gradually decreased

Reference: US8530513B1, “Pharmaceutical uses of diterpene excavatolide B from a coral or an analogue thereof” (National Sun Yat-Sen University, priority 2012, dated 2013)
